{"source": "patent US12024504B2", "about": "“1-methyl-1H-pyrazol-3-yl derivatives for use in the treatment of neovascular diseases” (EXONATE LIMITED, priority 2021, dated 2024)", "key": {"VEGF-A165b and panVEGF": {"tested_on": "VEGF-A165b and panVEGF", "assay": "STZ model of diabetes, retinal VEGF immunoblotting", "type": "in vivo, Norway Brown rats", "conditions": "diabetic rats, bidaily eye drops for 28 days, Western blot", "protocol": "To determine whether compound 1 could effectively switch the splicing of VEGF in a model of diabetes we used the STZ model of diabetes in Norway Brown rats. Diabetic animals were treated with twice daily eye drops of compound 1 for four weeks and killed, and the retina dissected. Protein was extracted and subjected to immunoblotting for VEGF-A165b and panVEGF."}, "[1]": {"assay": "Rabbit pharmacokinetic study (eye drop)", "type": "in vivo", "conditions": "single 50 μL eye drop, 500 μg/mL, 1, 4, 12 or 24 hours", "protocol": "Rabbits were treated with a single 50 μL eye drop of pazopanib at 80 μg/ml (maximum limit of solubility) and compound R at 500 μg/mL in the initial eye drop formulation containing 1% hydroxypropyl methyl cellulose, 0.2% tyloxapol, 3.4% dextrose, 0.006% benzalkonium chloride, and 0.025% ethylenediaminetetraacetic acid with 1% DMSO in PBS or with a single 50 μL eye drop of compound 1 at 500 μg/mL in the eye drop formulation containing 7% poly-oxyl-40-stearate and 4% dextrose in PBS. No difference between the eye drop formulations was confirmed in a separate study. Rabbits were killed at the indicated time points after the eye drop, blood and eyes taken, and the retina dissected from the choroid and sclera, incisions made, and laid out flat. Retina, RPE/choroid and sclera eye compartments were dissected into 7 different areas. All samples were weighed. Compound was extracted by reverse phase extraction from the retina and choroid/sclera samples and the plasma as above, and amount determined by mass spectrometry in different areas of the eye and in the blood. […]\nTo determine if the compounds could access the RPE of an animal with a large eye, a rabbit was exposed to 500 μg/mL of the compound as an eye drop and the concentrations in the retina, sclera, vitreous and other eye tissues (cornea); lens; RPE/choroid were measured. […]"}, "VEGF-A165a isoform": {"tested_on": "VEGF-A165a isoform", "assay": "VEGF isoform specific ELISA in retinal pigmented epithelial cells", "type": "cell-based, human", "conditions": "FIG. 5", "protocol": "96-well clear microplate (high sensitivity thermo immulon or costar 9018) were coated with 100 μL of 10 μg/mL VEGFxxxb or 0.25 μg/mL anti-hVEGF165a per well. The plate was sealed with parafilm and incubated overnight on the shaker at room temp. Each well was aspirated and washed with Wash Buffer (200 μL PBS-Tween 0.05%), […] for a total of three washes. After the last wash, remaining Wash Buffer was removed by inverting the plate and blotting it against clean paper towels. Plates were blocked by adding 100 μL of Reagent Diluent (1% BSA/PBS) to each well and incubated at room temp on a shaker for 2 hours. The aspiration/wash step was repeated. 100 μL of standards or samples in 1% BSA/PBS were added to each well, covered with parafilm and incubated 2 hours at room temperature. The aspiration/wash was repeated and 100 μL of 100 ng/mL of Detection Antibody (BAF293), diluted in Reagent Diluent, was added to each well which were covered with parafilm and incubated 2 hours at room temperature. The aspiration/wash was repeated and 100 μL of the working dilution of Streptavidin-HRP (1:200 dilution) was added to each well. […] The optical density of each well was measured immediately, using a microplate reader set to 450 nm.\nTo determine whether compound 1 could switch splicing of VEGF isoforms, VEGF was measured in retinal pigmented epithelial cells by isoform specific ELISA."}}, "data": [{"smiles": "Cn1ccc(CN2CCN(c3ccc(C(F)(F)F)cc3NC(=O)c3ccc(C4CCOCC4)o3)CC2)n1", "note": "[Compound 1, N-(2-(4-((1-methyl-1H-pyrazol-3-yl)methyl)piperazin-1-yl)-5-(trifluoromethyl)phenyl)-5-(tetrahydro-2H-pyran-4-yl)furan-2-carboxamide]", "values": [{"measurement": "Proportion of VEGF-A165b to total VEGF", "setting": "VEGF-A165b and panVEGF", "result": "increased"}, {"measurement": "Total VEGF in retina", "setting": "VEGF-A165b and panVEGF", "result": "total VEGF is reduced"}, {"measurement": "VEGF-A165b in retina", "setting": "VEGF-A165b and panVEGF", "result": "VEGF-A165b is increased"}, {"measurement": "Retinal penetration after eye drop", "setting": "[1]", "result": "better sustained penetration (e.g. at 4 hrs) than chemically similar molecules such as Compound R"}, {"measurement": "melting point", "result": "148 to 150", "unit": "°C"}, {"measurement": "Expression of pro-angiogenic VEGF-A165a isoform", "setting": "VEGF-A165a isoform", "result": "reduces expression of the pro-angiogenic VEGF-A165a isoform in a dose dependent manner"}]}]}
